Results on one compound are retold here after US20240122938A1, “METHODS AND COMPOSITIONS FOR TREATING UVEAL MELANOMA” (INSERM (INSTITUT NATIONAL DE LA SANTÉ ET DE LA RECHERCHE …, priority 2019, published 2024).

Experiment [1] deals with ER stress molecules in metastatic human uveal melanoma cells. In words: Western blot of ER stress molecules. It counts as cell-based. Here is the method: (§1) Western blotting was performed as previously described 25,26. Briefly, cell lysates (30 μg) were separated using SDS-PAGE, transferred onto a PVDF membrane and subsequently exposed to the appropriate antibodies, anti-BCL2 (ms-123-PO) was from neomarker, anti-caspase 3 (#610323) was from BD, anti-BAX (#8429) was from sigma, anti-PARP (#9542), anti-BCL-XL (#2762), anti-caspase 9 (#9502) and anti-PUMA (#4976) were from Cell Signaling Technology Inc, anti-MCL1 (#sc-819), anti-NOXA (#56169), and anti-HSP90 (#sc-13119) were from Santa Cruz biotechnology. The proteins were visualized using the ECL system (Amersham). The western blots shown are representative of at least 3 independent experiments.
On the technique in general: A western blot detects proteins with antibodies after separation by electrophoresis.

Experiment [2] has as its system short-term cultures of primary uveal melanoma tumour. In words: Cell death in short-term cultures. The experiment is classed as cell-based, human. The note with it: data not shown. The protocol: (§2) Human uveal melanoma cell lines and short-term cultures derived from different patients with metastatic malignant melanoma cells were grown in DMEM supplemented with 7% FBS at 37° C. in a humidified atmosphere containing 5% CO2. Lipofectamine™ RNAiMAX and opti-MEM medium were purchased from Invitrogen (San Diego, CA, USA). ABT-263 was obtained from Euromedex and qVD from Clinisciences. Cells were seeded at a density of 100 000 cells/well, in 6-well plate and treated with ABT-263 for indicated time. Cells were harvested using accutase enzyme, washed twice with ice-cold phosphate-buffered saline, resuspended in a buffer (Hepes 250 mM, NaCl 150 mM, KCl 5 mM, MgCl2 2 mM, CaCl2) 2 mM) with DAPI (1 μg/ml) and Annexin V-Alexa Fluor 647 conjugate (1/100) and incubated for 15 minutes at room temperature (25° C.) in the dark. Samples were immediately analyzed by a flow cytometer (MACS QUANT) using a laser at 405 nm excitation with a bandpass filter at 425 nm and 475 nm for DAPI detection and a laser at 635 nm excitation with a bandpass filter at 650 nm and 665 nm for Alexa Fluor 647 dye. Annexin and DAPI mono- or double positive cells were counted as dead cells.

Experiment [3] concerns OMM1 uveal melanoma cells. In words: Mitochondrial membrane potential by TMRE staining. It counts as cell-based, human. Conditions: OMM1; ABT-263 3 μM or 5 μM, 48 h. The protocol: (§3) FIG. 1. ABT-263 induces apoptosis of uveal melanoma cells. Detection of the mitochondrial membrane potential using TMRE staining in Mel270 and OMM1 uveal melanoma cells exposed to ABT-263 3 μM or 5 μM for 48 h in the absence or presence of QVD-OPh 20 μM.

The test system of experiment [4] is Mel270 uveal melanoma cells. In words: Mitochondrial membrane potential by TMRE staining. The experiment is classed as cell-based, human. The note with it: Mel270; ABT-263 3 μM or 5 μM, 48 h. The protocol: as §3
Experiment [5] deals with ATF4 and CHOP in 92.1 cells. The experiment in a line: Western blot of ER stress molecules. The experiment is classed as cell-based, human. Here is the method: as §1
Experiment [6] has as its system CDK4, p27 and p21 in Mel270 cells. In words: Western blot of cell cycle proteins. The experiment is classed as cell-based, human. Here is the method:
as §1

The test system of the next experiment is XBP1 splicing. In words: XBP1 splicing (QRT-PCR). The experiment is classed as cell-based, human. The note with it: both primary cells and metastatic OMM1 cells. Here is the method:
The mRNA was isolated using TRIzol (Invitrogen) according to a standard procedure. QRT-PCR was performed using SYBR® Green I (Eurogentec, Seraing, Belgium) and Multiscribe Reverse Transcriptase (Applied Biosystems) and subsequently monitored using the ABI Prism 7900 Sequence Detection System (Applied Biosystems, Foster City, CA). The detection of the SB34 gene was used to normalize the results. Spliced Xbp1 primers were previously reported27. Primer sequences for each cDNA were designed using either Primer Express Software (Applied Biosystems) or qPrimer depot (http://primerdepot.nci.nih.gov), and these sequences are available upon request.

For the next experiment, the system named is NOXA in primary cells. In words: Protein immunoblot of BCL-2 family members. It counts as cell-based, human. The note with it: 24 h of treatment. The protocol:
as §1, with “(Amersham).” for “(Amersham). The western blots shown are representative of at least 3 independent experiments.”

The subject of experiment [7] is BCL-2 family members in metastatic OMM1 cells. The experiment in a line: Protein immunoblot of BCL-2 family members. It counts as cell-based, human. Here is the method:
as §1, with “(Amersham).” for “(Amersham). The western blots shown are representative of at least 3 independent experiments.”

Experiment [8] has as its system primary uveal melanoma cell lines. The experiment in a line: Cell death by Annexin V/DAPI staining (flow cytometry). It counts as cell-based, human. The protocol:
as §2, with “Cells” for “Human uveal melanoma cell lines and short-term cultures derived from different patients with metastatic malignant melanoma cells were grown in DMEM supplemented with 7% FBS at 37° C. in a humidified atmosphere containing 5% CO2. Lipofectamine™ RNAiMAX and opti-MEM medium were purchased from Invitrogen (San Diego, CA, USA). ABT-263 was obtained from Euromedex and qVD from Clinisciences. Cells”

The subject of experiment [9] is metastatic uveal melanoma cells. Described as above. It counts as cell-based, human. Here is the method:
as §2, with “Cells” for “Human uveal melanoma cell lines and short-term cultures derived from different patients with metastatic malignant melanoma cells were grown in DMEM supplemented with 7% FBS at 37° C. in a humidified atmosphere containing 5% CO2. Lipofectamine™ RNAiMAX and opti-MEM medium were purchased from Invitrogen (San Diego, CA, USA). ABT-263 was obtained from Euromedex and qVD from Clinisciences. Cells”

A further experiment relates to primary melanoma cells. In words: Cell proliferation assay. The note with it: data not shown. The experiment is classed as cell-based, human. The protocol:
(§4) Human uveal melanoma cell lines and short-term cultures derived from different patients with metastatic malignant melanoma cells were grown in DMEM supplemented with 7% FBS at 37° C. in a humidified atmosphere containing 5% CO2. Lipofectamine™ RNAiMAX and opti-MEM medium were purchased from Invitrogen (San Diego, CA, USA). ABT-263 was obtained from Euromedex and qVD from Clinisciences.

Experiment [10] relates to OMM2,5 metastatic melanoma cells. In words: Cell proliferation assay. It counts as cell-based, human. The protocol:
as §4

In another experiment the test system is OMM1 cells. The experiment in a line: Cell proliferation assay. The experiment is classed as cell-based, human. The note with it: OMM1 metastatic melanoma cells. Here is the method: as §4

For the compound `CC1(C)CCC(c2ccc(Cl)cc2)=C(CN2CCN(c3ccc(C(=O)NS(=O)(=O)c4ccc(N[C@H](CCN5CCOCC5)CSc5ccccc5)c(S(=O)(=O)C(F)(F)F)c4)cc3)CC2)C1` [ABT-263, 4-[4-[[2-(4-chlorophenyl)-5,5-dimethyl-1-cyclohexen-1-yl]methyl]-1-piperazinyl]-N-[[4-[[(1R)-3-(4-morpholinyl)-1-[(phenylthio)methyl]propyl]amino]-3-[(trifluoromethyl)sulfonyl]phenyl]sulfonyl]-benzamide], the “PERK and IRE1α phosphorylation” value in experiment [1] (metastatic cell lines) was “did not detect”. In addition, the “induction of ATF4 and CHOP” value in experiment [1] (metastatic cells) is given as “hardly detectable”. The killing effect entry in experiment [2] is given as “killing effect was also found”. For the same compound, the “mitochondrial membrane potential ΔΨm” value in experiment [3] and in experiment [4] was “dose-dependently reduced” in each case. The “ATF4 and CHOP level” value in experiment [5] was “enhanced”. In addition, the “cell cycle (reduced CDK4, increased p27 and p21)” value in experiment [6] is reported as “cell cycle arrest”. Besides, the XBP1 splicing result in the experiment with XBP1 splicing is “significantly higher”. In the experiment on NOXA in primary cells, the “change in BCL-2 family proteins” value was “increase in pro-apoptotic NOXA level”. The BCL2 level result in experiment [7] (cell line not given) is reported as “no change”. Besides, the “expression of BCL-xL, MCL1, PUMA, BAX” value in experiment [7] (metastatic OMM1 cells only) was “reduced expression”. The cell death in experiment [8] is given as 20-35%; in experiment [9], 80%. The “proliferation, response of primary melanoma cells” value with primary melanoma cells was “highly resistant”. The proliferation entry (in experiment [10]; with OMM1 cells) was “strongly reduced proliferation” each time.
